Measurements from the OligoGym collection.
Oligonucleotides are given in HELM: sugar(base)linkage, 5' to 3'; d 2'-deoxyribose, r ribose, m 2'-O-methylribose, p phosphate. ss, as = sense and antisense strand

These substances were tested against SOST (assay: reporter assay of Huesken 2005). Settings: siRNA.
Further: test concentration or dose not given here.

First: RNA1{r(A)p.r(G)p.r(U)p.r(G)p.r(G)p.r(U)p.r(G)p.r(G)p.r(C)p.r(G)p.r(A)p.r(C)p.r(C)p.r(U)p.r(A)p.r(G)p.r(U)p.r(G)p.r(G)p.d(T)p.d(T)}|RNA2{r(C)p.r(C)p.r(A)p.r(C)p.r(U)p.r(A)p.r(G)p.r(G)p.r(U)p.r(C)p.r(G)p.r(C)p.r(C)p.r(A)p.r(C)p.r(C)p.r(A)p.r(C)p.r(U)p.d(T)p.d(G)}$$$RNA1{StrandType:ss}|RNA2{StrandType:as}$
Second: RNA1{r(C)p.r(A)p.r(A)p.r(G)p.r(U)p.r(G)p.r(C)p.r(A)p.r(A)p.r(G)p.r(C)p.r(G)p.r(C)p.r(C)p.r(U)p.r(C)p.r(A)p.r(C)p.r(C)p.d(T)p.d(T)}|RNA2{r(G)p.r(G)p.r(U)p.r(G)p.r(A)p.r(G)p.r(G)p.r(C)p.r(G)p.r(C)p.r(U)p.r(U)p.r(G)p.r(C)p.r(A)p.r(C)p.r(U)p.r(U)p.r(G)p.d(C)p.d(A)}$$$RNA1{StrandType:ss}|RNA2{StrandType:as}$
The normalised inhibition (eCFP-eYFP dual reporter) of the first is higher: 78.9% for the first, 68.8% for the second.

First: RNA1{r(C)p.r(A)p.r(A)p.r(G)p.r(U)p.r(G)p.r(G)p.r(U)p.r(G)p.r(G)p.r(C)p.r(G)p.r(A)p.r(C)p.r(C)p.r(U)p.r(A)p.r(G)p.r(U)p.d(T)p.d(T)}|RNA2{r(A)p.r(C)p.r(U)p.r(A)p.r(G)p.r(G)p.r(U)p.r(C)p.r(G)p.r(C)p.r(C)p.r(A)p.r(C)p.r(C)p.r(A)p.r(C)p.r(U)p.r(U)p.r(G)p.d(C)p.d(C)}$$$RNA1{StrandType:ss}|RNA2{StrandType:as}$
Second: RNA1{r(C)p.r(A)p.r(C)p.r(C)p.r(C)p.r(C)p.r(U)p.r(U)p.r(U)p.r(G)p.r(A)p.r(G)p.r(A)p.r(C)p.r(C)p.r(A)p.r(A)p.r(A)p.r(G)p.d(T)p.d(T)}|RNA2{r(C)p.r(U)p.r(U)p.r(U)p.r(G)p.r(G)p.r(U)p.r(C)p.r(U)p.r(C)p.r(A)p.r(A)p.r(A)p.r(G)p.r(G)p.r(G)p.r(G)p.r(U)p.r(G)p.d(G)p.d(T)}$$$RNA1{StrandType:ss}|RNA2{StrandType:as}$
The normalised inhibition (eCFP-eYFP dual reporter) of the first is lower: 64.5% for the first, 72.2% for the second.

Going from “RNA1{r(C)p.r(A)p.r(G)p.r(C)p.r(G)p.r(C)p.r(C)p.r(A)p.r(A)p.r(G)p.r(C)p.r(C)p.r(G)p.r(G)p.r(U)p.r(C)p.r(A)p.r(C)p.r(C)p.d(T)p.d(T)}|RNA2{r(G)p.r(G)p.r(U)p.r(G)p.r(A)p.r(C)p.r(C)p.r(G)p.r(G)p.r(C)p.r(U)p.r(U)p.r(G)p.r(G)p.r(C)p.r(G)p.r(C)p.r(U)p.r(G)p.d(C)p.d(G)}$$$RNA1{StrandType:ss}|RNA2{StrandType:as}$” to “RNA1{r(C)p.r(A)p.r(G)p.r(G)p.r(C)p.r(G)p.r(U)p.r(U)p.r(C)p.r(A)p.r(A)p.r(G)p.r(A)p.r(A)p.r(U)p.r(G)p.r(A)p.r(U)p.r(G)p.d(T)p.d(T)}|RNA2{r(C)p.r(A)p.r(U)p.r(C)p.r(A)p.r(U)p.r(U)p.r(C)p.r(U)p.r(U)p.r(G)p.r(A)p.r(A)p.r(C)p.r(G)p.r(C)p.r(C)p.r(U)p.r(G)p.d(C)p.d(C)}$$$RNA1{StrandType:ss}|RNA2{StrandType:as}$”, the normalised inhibition (eCFP-eYFP dual reporter) rises from 50.5% to 82.4%.

Going from “RNA1{r(C)p.r(A)p.r(U)p.r(C)p.r(C)p.r(C)p.r(C)p.r(G)p.r(A)p.r(G)p.r(C)p.r(U)p.r(C)p.r(G)p.r(G)p.r(A)p.r(G)p.r(A)p.r(G)p.d(T)p.d(T)}|RNA2{r(C)p.r(U)p.r(C)p.r(U)p.r(C)p.r(C)p.r(G)p.r(A)p.r(G)p.r(C)p.r(U)p.r(C)p.r(G)p.r(G)p.r(G)p.r(G)p.r(A)p.r(U)p.r(G)p.d(A)p.d(T)}$$$RNA1{StrandType:ss}|RNA2{StrandType:as}$” to “RNA1{r(C)p.r(C)p.r(A)p.r(C)p.r(A)p.r(A)p.r(C)p.r(C)p.r(A)p.r(G)p.r(U)p.r(C)p.r(G)p.r(G)p.r(A)p.r(G)p.r(C)p.r(U)p.r(C)p.d(T)p.d(T)}|RNA2{r(G)p.r(A)p.r(G)p.r(C)p.r(U)p.r(C)p.r(C)p.r(G)p.r(A)p.r(C)p.r(U)p.r(G)p.r(G)p.r(U)p.r(U)p.r(G)p.r(U)p.r(G)p.r(G)p.d(A)p.d(A)}$$$RNA1{StrandType:ss}|RNA2{StrandType:as}$”, the normalised inhibition (eCFP-eYFP dual reporter) rises from 50.9% to 80.8%.

Going from “RNA1{r(C)p.r(C)p.r(A)p.r(C)p.r(C)p.r(G)p.r(G)p.r(A)p.r(G)p.r(C)p.r(U)p.r(G)p.r(G)p.r(A)p.r(G)p.r(A)p.r(A)p.r(C)p.r(A)p.d(T)p.d(T)}|RNA2{r(U)p.r(G)p.r(U)p.r(U)p.r(C)p.r(U)p.r(C)p.r(C)p.r(A)p.r(G)p.r(C)p.r(U)p.r(C)p.r(C)p.r(G)p.r(G)p.r(U)p.r(G)p.r(G)p.d(A)p.d(G)}$$$RNA1{StrandType:ss}|RNA2{StrandType:as}$” to “RNA1{r(C)p.r(C)p.r(C)p.r(G)p.r(C)p.r(U)p.r(A)p.r(C)p.r(G)p.r(U)p.r(G)p.r(A)p.r(C)p.r(C)p.r(G)p.r(A)p.r(U)p.r(G)p.r(G)p.d(T)p.d(T)}|RNA2{r(C)p.r(C)p.r(A)p.r(U)p.r(C)p.r(G)p.r(G)p.r(U)p.r(C)p.r(A)p.r(C)p.r(G)p.r(U)p.r(A)p.r(G)p.r(C)p.r(G)p.r(G)p.r(G)p.d(T)p.d(G)}$$$RNA1{StrandType:ss}|RNA2{StrandType:as}$”, the normalised inhibition (eCFP-eYFP dual reporter) falls from 86.7% to 77.6%.

Going from “RNA1{r(C)p.r(C)p.r(G)p.r(A)p.r(U)p.r(G)p.r(G)p.r(G)p.r(C)p.r(C)p.r(G)p.r(U)p.r(G)p.r(C)p.r(C)p.r(G)p.r(C)p.r(A)p.r(G)p.d(T)p.d(T)}|RNA2{r(C)p.r(U)p.r(G)p.r(C)p.r(G)p.r(G)p.r(C)p.r(A)p.r(C)p.r(G)p.r(G)p.r(C)p.r(C)p.r(C)p.r(A)p.r(U)p.r(C)p.r(G)p.r(G)p.d(T)p.d(C)}$$$RNA1{StrandType:ss}|RNA2{StrandType:as}$” to “RNA1{r(C)p.r(C)p.r(G)p.r(C)p.r(A)p.r(G)p.r(C)p.r(G)p.r(C)p.r(C)p.r(A)p.r(A)p.r(G)p.r(C)p.r(C)p.r(G)p.r(G)p.r(U)p.r(C)p.d(T)p.d(T)}|RNA2{r(G)p.r(A)p.r(C)p.r(C)p.r(G)p.r(G)p.r(C)p.r(U)p.r(U)p.r(G)p.r(G)p.r(C)p.r(G)p.r(C)p.r(U)p.r(G)p.r(C)p.r(G)p.r(G)p.d(C)p.d(A)}$$$RNA1{StrandType:ss}|RNA2{StrandType:as}$”, the normalised inhibition (eCFP-eYFP dual reporter) falls from 54.3% to 51.3%.

Compared with “RNA1{r(C)p.r(C)p.r(G)p.r(C)p.r(G)p.r(A)p.r(G)p.r(C)p.r(U)p.r(G)p.r(C)p.r(A)p.r(C)p.r(U)p.r(U)p.r(C)p.r(A)p.r(C)p.r(C)p.d(T)p.d(T)}|RNA2{r(G)p.r(G)p.r(U)p.r(G)p.r(A)p.r(A)p.r(G)p.r(U)p.r(G)p.r(C)p.r(A)p.r(G)p.r(C)p.r(U)p.r(C)p.r(G)p.r(C)p.r(G)p.r(G)p.d(C)p.d(A)}$$$RNA1{StrandType:ss}|RNA2{StrandType:as}$”, “RNA1{r(C)p.r(C)p.r(G)p.r(C)p.r(U)p.r(A)p.r(C)p.r(G)p.r(U)p.r(G)p.r(A)p.r(C)p.r(C)p.r(G)p.r(A)p.r(U)p.r(G)p.r(G)p.r(G)p.d(T)p.d(T)}|RNA2{r(C)p.r(C)p.r(C)p.r(A)p.r(U)p.r(C)p.r(G)p.r(G)p.r(U)p.r(C)p.r(A)p.r(C)p.r(G)p.r(U)p.r(A)p.r(G)p.r(C)p.r(G)p.r(G)p.d(G)p.d(T)}$$$RNA1{StrandType:ss}|RNA2{StrandType:as}$” is lower in normalised inhibition (eCFP-eYFP dual reporter): 66.8% for the first, 64.7% for the second.

First: RNA1{r(C)p.r(C)p.r(G)p.r(G)p.r(U)p.r(G)p.r(G)p.r(U)p.r(G)p.r(A)p.r(G)p.r(G)p.r(C)p.r(G)p.r(C)p.r(C)p.r(G)p.r(C)p.r(G)p.d(T)p.d(T)}|RNA2{r(C)p.r(G)p.r(C)p.r(G)p.r(G)p.r(C)p.r(G)p.r(C)p.r(C)p.r(U)p.r(C)p.r(A)p.r(C)p.r(C)p.r(A)p.r(C)p.r(C)p.r(G)p.r(G)p.d(G)p.d(A)}$$$RNA1{StrandType:ss}|RNA2{StrandType:as}$
Second: RNA1{r(C)p.r(C)p.r(G)p.r(U)p.r(G)p.r(C)p.r(C)p.r(G)p.r(C)p.r(A)p.r(G)p.r(C)p.r(G)p.r(C)p.r(C)p.r(A)p.r(A)p.r(G)p.r(C)p.d(T)p.d(T)}|RNA2{r(G)p.r(C)p.r(U)p.r(U)p.r(G)p.r(G)p.r(C)p.r(G)p.r(C)p.r(U)p.r(G)p.r(C)p.r(G)p.r(G)p.r(C)p.r(A)p.r(C)p.r(G)p.r(G)p.d(C)p.d(C)}$$$RNA1{StrandType:ss}|RNA2{StrandType:as}$
The normalised inhibition (eCFP-eYFP dual reporter) of the first is lower: 35.8% for the first, 50.5% for the second.

First: RNA1{r(C)p.r(C)p.r(G)p.r(U)p.r(G)p.r(U)p.r(A)p.r(G)p.r(U)p.r(G)p.r(G)p.r(A)p.r(G)p.r(G)p.r(G)p.r(C)p.r(C)p.r(A)p.r(G)p.d(T)p.d(T)}|RNA2{r(C)p.r(U)p.r(G)p.r(G)p.r(C)p.r(C)p.r(C)p.r(U)p.r(C)p.r(C)p.r(A)p.r(C)p.r(U)p.r(A)p.r(C)p.r(A)p.r(C)p.r(G)p.r(G)p.d(A)p.d(A)}$$$RNA1{StrandType:ss}|RNA2{StrandType:as}$
Second: RNA1{r(C)p.r(C)p.r(U)p.r(C)p.r(C)p.r(A)p.r(C)p.r(C)p.r(G)p.r(G)p.r(A)p.r(G)p.r(C)p.r(U)p.r(G)p.r(G)p.r(A)p.r(G)p.r(A)p.d(T)p.d(T)}|RNA2{r(U)p.r(C)p.r(U)p.r(C)p.r(C)p.r(A)p.r(G)p.r(C)p.r(U)p.r(C)p.r(C)p.r(G)p.r(G)p.r(U)p.r(G)p.r(G)p.r(A)p.r(G)p.r(G)p.d(C)p.d(T)}$$$RNA1{StrandType:ss}|RNA2{StrandType:as}$
The normalised inhibition (eCFP-eYFP dual reporter) of the first is lower: 55.2% for the first, 68.8% for the second.

Going from “RNA1{r(C)p.r(G)p.r(A)p.r(U)p.r(G)p.r(G)p.r(G)p.r(C)p.r(C)p.r(G)p.r(U)p.r(G)p.r(C)p.r(C)p.r(G)p.r(C)p.r(A)p.r(G)p.r(C)p.d(T)p.d(T)}|RNA2{r(G)p.r(C)p.r(U)p.r(G)p.r(C)p.r(G)p.r(G)p.r(C)p.r(A)p.r(C)p.r(G)p.r(G)p.r(C)p.r(C)p.r(C)p.r(A)p.r(U)p.r(C)p.r(G)p.d(G)p.d(T)}$$$RNA1{StrandType:ss}|RNA2{StrandType:as}$” to “RNA1{r(C)p.r(G)p.r(C)p.r(C)p.r(A)p.r(A)p.r(G)p.r(C)p.r(C)p.r(G)p.r(G)p.r(U)p.r(C)p.r(A)p.r(C)p.r(C)p.r(G)p.r(A)p.r(G)p.d(T)p.d(T)}|RNA2{r(C)p.r(U)p.r(C)p.r(G)p.r(G)p.r(U)p.r(G)p.r(A)p.r(C)p.r(C)p.r(G)p.r(G)p.r(C)p.r(U)p.r(U)p.r(G)p.r(G)p.r(C)p.r(G)p.d(C)p.d(T)}$$$RNA1{StrandType:ss}|RNA2{StrandType:as}$”, the normalised inhibition (eCFP-eYFP dual reporter) rises from 51% to 59.1%.
